Assays:
ATAD5-RFC = system: T1, ATAD5-RFC; assay: malachite green phosphate ATPase assay; assay type: biochemical, Homo sapiens; conditions: 1 mM ATP, 0.25 μM ATAD5-RFC, 2 mM MgCl2, pH 7.6, room temperature; alone or with PCNA and/or DNA
T1 construct: N-terminally truncated ATAD5 (812-end of 1844), N-terminal 3xFLAG and C-terminal 6xHis, heteropentamer with RFC2-RFC5, insect cells (Sf9/Hi5)

[1] = system: T2, human ATAD5-RFC–PCNA complex; assay: cryo-EM structure; assay type: binding; conditions: 0.5 mM ATPγS, Mg2+; bound at ATAD5, RFC2, RFC5 and (states 1 and 2) RFC4
T2 construct: N-terminally truncated ATAD5 (812-end of 1844), N-terminal 3xFLAG and C-terminal 6xHis, with RFC2-RFC5, insect cells (Sf9/Hi5); PCNA homotrimer from E. coli, His tag cut by thrombin; with Proliferating cell nuclear antigen
T2 sequence (Q96QE3 812-1844): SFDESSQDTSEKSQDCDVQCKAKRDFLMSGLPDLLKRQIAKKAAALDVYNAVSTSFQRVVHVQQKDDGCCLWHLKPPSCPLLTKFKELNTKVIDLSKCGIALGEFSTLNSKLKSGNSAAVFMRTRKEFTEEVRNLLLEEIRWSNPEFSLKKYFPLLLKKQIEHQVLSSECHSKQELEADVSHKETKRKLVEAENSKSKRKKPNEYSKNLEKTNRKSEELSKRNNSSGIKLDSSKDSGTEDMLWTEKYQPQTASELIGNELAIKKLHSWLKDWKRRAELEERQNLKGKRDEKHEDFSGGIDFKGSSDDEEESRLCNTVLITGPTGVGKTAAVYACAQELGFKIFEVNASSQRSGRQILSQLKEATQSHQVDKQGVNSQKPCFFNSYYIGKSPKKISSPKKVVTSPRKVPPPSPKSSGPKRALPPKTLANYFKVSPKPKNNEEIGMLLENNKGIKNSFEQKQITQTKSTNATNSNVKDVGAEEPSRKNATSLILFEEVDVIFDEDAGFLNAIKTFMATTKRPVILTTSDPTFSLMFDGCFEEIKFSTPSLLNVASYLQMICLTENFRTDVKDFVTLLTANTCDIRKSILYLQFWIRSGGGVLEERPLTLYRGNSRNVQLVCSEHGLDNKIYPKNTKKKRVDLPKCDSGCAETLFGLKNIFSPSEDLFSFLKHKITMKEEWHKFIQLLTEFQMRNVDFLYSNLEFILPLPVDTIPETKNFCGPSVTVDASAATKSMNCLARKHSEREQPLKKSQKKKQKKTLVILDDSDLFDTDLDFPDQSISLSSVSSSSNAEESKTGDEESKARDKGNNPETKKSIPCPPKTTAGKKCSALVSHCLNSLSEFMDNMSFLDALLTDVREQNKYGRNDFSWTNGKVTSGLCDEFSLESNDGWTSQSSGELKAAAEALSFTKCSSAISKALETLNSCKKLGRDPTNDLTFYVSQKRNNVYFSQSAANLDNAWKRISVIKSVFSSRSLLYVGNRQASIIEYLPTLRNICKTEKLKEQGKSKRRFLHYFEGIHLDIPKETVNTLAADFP
T2 sequence (P35250 whole entry, further chain, the tested form may be a part): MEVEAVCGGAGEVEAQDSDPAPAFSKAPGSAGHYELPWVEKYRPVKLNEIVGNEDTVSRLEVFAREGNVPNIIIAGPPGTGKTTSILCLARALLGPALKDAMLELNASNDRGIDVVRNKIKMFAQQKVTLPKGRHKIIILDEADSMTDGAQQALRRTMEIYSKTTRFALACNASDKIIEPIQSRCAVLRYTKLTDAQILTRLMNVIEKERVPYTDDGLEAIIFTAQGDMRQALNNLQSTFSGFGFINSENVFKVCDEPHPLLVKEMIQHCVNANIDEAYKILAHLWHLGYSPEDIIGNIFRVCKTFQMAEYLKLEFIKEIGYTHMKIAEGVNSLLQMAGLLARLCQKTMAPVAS
T2 sequence (P40938 whole entry, further chain, the tested form may be a part): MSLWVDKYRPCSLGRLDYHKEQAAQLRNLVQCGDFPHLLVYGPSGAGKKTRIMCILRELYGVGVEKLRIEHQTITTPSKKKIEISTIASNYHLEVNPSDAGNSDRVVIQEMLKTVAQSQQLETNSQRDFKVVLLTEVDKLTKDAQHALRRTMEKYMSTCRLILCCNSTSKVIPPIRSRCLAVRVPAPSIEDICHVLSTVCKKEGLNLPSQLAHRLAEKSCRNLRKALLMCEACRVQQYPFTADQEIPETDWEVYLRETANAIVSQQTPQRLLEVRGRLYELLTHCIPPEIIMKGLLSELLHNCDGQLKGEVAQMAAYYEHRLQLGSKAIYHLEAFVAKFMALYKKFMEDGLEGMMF
T2 sequence (P35249 whole entry, further chain, the tested form may be a part): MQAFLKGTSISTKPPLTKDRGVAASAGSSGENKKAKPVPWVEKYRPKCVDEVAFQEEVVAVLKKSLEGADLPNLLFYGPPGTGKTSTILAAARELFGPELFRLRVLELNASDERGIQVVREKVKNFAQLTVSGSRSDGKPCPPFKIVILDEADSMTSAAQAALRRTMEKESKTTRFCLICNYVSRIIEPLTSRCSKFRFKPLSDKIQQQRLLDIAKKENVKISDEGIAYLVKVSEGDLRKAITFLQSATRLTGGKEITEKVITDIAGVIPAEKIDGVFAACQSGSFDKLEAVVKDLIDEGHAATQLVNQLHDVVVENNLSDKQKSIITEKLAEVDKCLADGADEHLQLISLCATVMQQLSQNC
T2 sequence (P40937 whole entry, further chain, the tested form may be a part): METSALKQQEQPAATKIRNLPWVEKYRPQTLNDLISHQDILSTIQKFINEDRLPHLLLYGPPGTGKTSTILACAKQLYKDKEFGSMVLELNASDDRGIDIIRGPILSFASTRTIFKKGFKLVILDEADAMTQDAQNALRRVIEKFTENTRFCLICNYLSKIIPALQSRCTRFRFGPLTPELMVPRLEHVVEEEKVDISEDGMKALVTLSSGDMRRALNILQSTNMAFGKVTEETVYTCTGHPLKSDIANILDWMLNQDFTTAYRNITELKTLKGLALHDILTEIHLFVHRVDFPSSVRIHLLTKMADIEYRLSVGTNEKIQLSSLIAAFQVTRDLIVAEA
T2 sequence (P12004 whole entry partner, the tested form may be a part): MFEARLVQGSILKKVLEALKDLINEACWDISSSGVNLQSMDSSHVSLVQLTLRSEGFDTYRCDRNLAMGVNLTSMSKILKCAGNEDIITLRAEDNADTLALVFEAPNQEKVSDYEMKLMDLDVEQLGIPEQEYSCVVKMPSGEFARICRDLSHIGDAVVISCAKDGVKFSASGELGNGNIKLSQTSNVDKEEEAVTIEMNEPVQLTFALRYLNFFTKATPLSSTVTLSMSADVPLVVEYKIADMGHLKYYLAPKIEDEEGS

T1 sequence (Q96QE3 812-1844): as the sequence (Q96QE3 812-1844) above
T1 sequence (P35250 whole entry, further chain, the tested form may be a part): as the sequence (P35250 whole entry, further chain, the tested form may be a part) above
T1 sequence (P40938 whole entry, further chain, the tested form may be a part): as the sequence (P40938 whole entry, further chain, the tested form may be a part) above
T1 sequence (P35249 whole entry, further chain, the tested form may be a part): as the sequence (P35249 whole entry, further chain, the tested form may be a part) above
T1 sequence (P40937 whole entry, further chain, the tested form may be a part): as the sequence (P40937 whole entry, further chain, the tested form may be a part) above

Structure (SMILES) | ATP hydrolyzed/min (ATAD5-RFC) | cryo-EM structure [1]
Nc1ncnc2c1ncn2[C@@H]1O[C@H](COP(=O)(O)OP(=O)(O)OP(=O)(O)O)[C@@H](O)[C@H]1O [ATP] | ATP hydrolyzed/min by ATAD5-RFC alone or with PCNA and/or DNA | 
Nc1ncnc2c1ncn2[C@@H]1O[C@H](COP(=O)(O)OP(=O)(O)OP(O)(O)=S)[C@@H](O)[C@H]1O [ATPγS] |  | four subunits (ATAD5, RFC2, RFC5 and RFC4, that is, subunits A–D) each bound an ATPγS
